“And” between values parts separate entries of the source, which are not always exact repeats. Equal entries are not always repeated. Where two headings read alike, the source gives them in different places.
T1: Tpx WT (Trypanosoma brucei brucei, UniProt O77404)
T1 sequence (O77404 1-144): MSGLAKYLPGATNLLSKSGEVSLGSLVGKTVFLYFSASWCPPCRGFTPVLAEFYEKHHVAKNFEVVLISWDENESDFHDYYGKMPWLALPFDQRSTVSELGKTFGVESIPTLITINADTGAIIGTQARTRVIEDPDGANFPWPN

B1: Tryparedoxin (protein)
chain: T1 sequence (O77404 1-144)
modifications: ortho-CFT covalently bound to C40
B2: Tryparedoxin (protein)
chain: T1 sequence (O77404 1-144)
modifications: para-CFT covalently bound to C40
B3: Tryparedoxin (protein)
chain: T1 sequence (O77404 1-144)
B4: Tryparedoxin (protein)
chain: T1 sequence (O77404 1-144)
modifications: CtFT covalently bound to C40
B5: Tryparedoxin (protein)
chain: T1 sequence (O77404 1-144)
modifications: meta-CFT covalently bound to C40
B6: Tryparedoxin (protein)
chain: T1 sequence (O77404 1-144)
modifications: CPT covalently bound to C40

How the values were obtained:
Tpx WT [1] = target: T1, Tpx WT; test: biochemical; assay type: binding; details: for rD,LILBID @ 1100 µm / rD,solution: Tpx WT with or without molecular glue; for rD,LILBID @ 1100 µm: from linear fits of dissociation plots; for rD,solution: from rD,LILBID with calibration factor f1100
Tpx WT [2] = target: T1, Tpx WT; parameters: method as in Schwegler et al., bioRxiv 2025; details: Tpx WT with molecular glue; previous dilution ITC; ref Schwegler et al., bioRxiv 2025; read-out: K D,ITC of Tpx homodimer; cited from earlier work
BSA (Bos taurus) = BSA (Bos taurus) (UniProt P02769); details: cited from earlier work
Tpx W39A = Tpx W39A (Trypanosoma brucei brucei, UniProt O77404, W39A); test: biochemical; assay type: binding
Sequence of Tpx W39A (O77404 whole entry W39A): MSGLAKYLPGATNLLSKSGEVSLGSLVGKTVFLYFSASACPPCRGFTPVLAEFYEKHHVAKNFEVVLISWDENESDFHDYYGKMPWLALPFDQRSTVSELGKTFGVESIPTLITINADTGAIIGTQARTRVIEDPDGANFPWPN

Tpx K102A = Tpx K102A (Trypanosoma brucei brucei, UniProt O77404, K102A); test: biochemical; assay type: binding
Sequence of Tpx K102A (O77404 whole entry K102A): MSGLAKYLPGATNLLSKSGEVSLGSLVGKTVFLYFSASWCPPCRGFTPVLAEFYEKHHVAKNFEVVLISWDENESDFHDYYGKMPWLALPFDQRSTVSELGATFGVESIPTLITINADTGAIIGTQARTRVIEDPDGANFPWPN

Tpx K102E [3] = target: T2, Tpx K102E (Trypanosoma brucei brucei, UniProt O77404, K102E); test: biochemical; assay type: binding
T2 sequence (O77404 whole entry K102E): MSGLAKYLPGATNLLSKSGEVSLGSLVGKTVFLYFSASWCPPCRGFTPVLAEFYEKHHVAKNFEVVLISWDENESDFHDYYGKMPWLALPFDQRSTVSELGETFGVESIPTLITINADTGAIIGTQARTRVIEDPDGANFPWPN

Tpx K102E [4] = target: T2, Tpx K102E; parameters: method as in Schwegler et al., bioRxiv 2025; details: Tpx K102E with molecular glue; previous dilution ITC; ref Schwegler et al., bioRxiv 2025; read-out: K D,ITC of Tpx homodimer; cited from earlier work
Tryparedoxin = target: B3; test: qLILBID-MS
qLILBID-MS = target: the molecule itself; test: qLILBID-MS

Molecule	Kd (Tpx WT [1]) [µM]	rD,LILBID @ 1100 µm (Tpx WT [1])	rD,solution (Tpx WT [1])	Kd (Tpx WT [2]) [µM]	Kd (Tryparedoxin) [µM]	other results
O=c1[nH]c(CCl)nc2scc(-c3cccc(F)c3)c12 [meta-CFT]	6 ± 5	0.809 ± 0.058	0.420 ± 0.124	3.7 ± 1.5	–	–
BSA (from UniProt P02769)	–	–	–	–	–	Kd (BSA (Bos taurus)): 10 µM
O=c1[nH]c(CCl)nc2scc(-c3ccccc3F)c12 [ortho-CFT]	–	0.897 ± 0.024	0.642 ± 0.072	32 ± 7	–	–
O=c1[nH]c(CCl)nc2scc(-c3ccc(C(F)(F)F)cc3)c12 [CtFT]	360 ± 110	0.983 ± 0.004	0.932 ± 0.017	410 ± 56	–	–
O=c1[nH]c(CCl)nc2scc(-c3ccc(F)cc3)c12 [para-CFT, 2-(chloromethyl)-5-(4-fluorophenyl)thieno[2,3-d]pyrimidin-4(3H)-one]	5 ± 4	0.798 ± 0.048	0.398 ± 0.099	5.3 ± 1.9	–	Kd (Tpx W39A): 300 ± 110 µM; rD,LILBID @ 1100 µm (Tpx W39A; Tpx W39A with or without para-CFT): 0.980 ± 0.006; rD,solution (Tpx W39A; Tpx W39A with or without para-CFT, from rD,LILBID with f1100): 0.921 ± 0.023; Kd (Tpx K102A; K D,LILBID of Tpx homodimer, Tpx K102A with para-CFT or none, ew 1100 μm, triplicate): 37 µM and 36 µM; rD,LILBID @ 1100 µm (Tpx K102A; Tpx K102A with or without para-CFT): 0.914 ± 0.027; rD,solution (Tpx K102A; Tpx K102A with or without para-CFT, from rD,LILBID with f1100): 0.692 ± 0.084; Kd (Tpx K102E [3]): 70 ± 16 µM; rD,LILBID @ 1100 µm (Tpx K102E [3]; Tpx K102E with or without para-CFT): 0.942 ± 0.008; rD,solution (Tpx K102E [3]; Tpx K102E with or without para-CFT, from rD,LILBID with f1100): 0.782 ± 0.029; Kd (Tpx K102E [4]): 83 ± 32 µM
O=c1[nH]c(CCl)nc2scc(-c3ccccc3)c12 [CPT]	16 ± 9	0.871 ± 0.033	0.568 ± 0.088	6 ± 2.2	–	–
B1	–	–	–	–	26	–
B2	–	–	–	–	5	–
B3	–	–	–	–	–	Kd (qLILBID-MS): > 500 µM
B4	–	–	–	–	360	–
B5	–	–	–	–	6	–
B6	–	–	–	–	16	–

— PMC13088243, “Quantifying Protein Homodimer Affinities and the Effect of Molecular Glues and Interface Residues Using Native Mass Spectrometry” (Journal of the American Chemical Society, 2026)
